Results reported in PubChem BioAssay AID504322 (Emory University Molecular Libraries Screening Center, 2011).
The source made the active and inactive calls. No rule for the calls is given here.

Test system: CHOP reporter cell assay, percent of control
Assay: CHOP reporter inhibitor potency, dose response, cell-based (AID 504322);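 also: CHO cells carrying a CHOP reporter stimulated with tunicamycin to induce ER stress; potency is for inhibition of the stress-induced reporter signal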

| SMILES | IC50 |
| --- | --- |
| OCCCNc1cc(-c2ccnc(Nc3cccc(Cl)c3)n2)ccn1 | < 0.16 µM |
| Cc1sc(NC(=O)c2cccc([N+](=O)[O-])c2)c(C(N)=O)c1-c1ccc(C(C)(C)C)cc1 | > 10 µM (inactive) |
| CC(C)=CCCC1(C)C=Cc2c(c(C)cc3c2[nH]c2cc(O)ccc23)O1 (configuration not stated) | 6.04 µM (inactive) |
| N#C/C(=C\c1ccc([N+](=O)[O-])o1)c1nc2ccccc2[nH]1 | 2.74 µM |
| CC1CCc2c(sc3ncn(CC(=O)N=Nc4c(O)[nH]c5ccccc45)c(=O)c23)C1 (configuration not stated) | 7.42 µM (inactive) |
| Fc1ccc(-n2nnnc2-c2cnc(-c3cccs3)nc2C(F)(F)F)cc1 | 6.67 µM (inactive) |
| CCCc1cc(-c2nc(N)ncc2-c2ccc3c(c2)OCCCO3)c(O)cc1OC | 8.02 µM (inactive) |
| COC(=O)/C(=C(/F)Sc1cc(C)c(O)c(C)c1)C(F)(F)F | 9.36 µM (inactive) |
| O=c1c(Cl)c(Cl)cnn1Cc1nnc(-c2ccccc2Br)o1 | 3.77 µM |
| COc1ccc(NC(=O)/C(Cl)=C(/Cl)S(=O)Cc2ccccc2Cl)cn1 (configuration not stated) | 0.3 µM |
| Nc1ccc2c(c1)C(=O)C(=O)c1ccccc1-2 | 5.08 µM (inactive) |
| Cc1ccc(OCC(=O)N/N=C/c2cn[nH]c2-c2ccc(Cl)c(Cl)c2)cc1 | 6.3 µM (inactive) |
| COc1ccc(Cn2c(SCc3ccccc3C)nc3cc(OC)c(OC)cc3c2=N)cc1 | 8.86 µM (inactive) |
| CC1(C)CC(C(CCN(Cc2ccccc2)C(=O)c2ccco2)c2ccc(F)cc2)CCO1 (configuration not stated) | 9.7 µM (inactive) |
| CCc1ccc(/C=C2\SC(=S)N(CCCC(=O)Nc3ccccn3)C2=O)cc1 | 0.16 µM |
| O=C(/C=C/Sc1ncn[nH]1)c1ccc(Cl)cc1 | > 10 µM (inactive) |
| O=C(c1nnsc1S(=O)(=O)c1ccc(Cl)cc1)N1CCOCC1 | 9.43 µM (inactive) |
| O=C(CSc1ncnc2[nH]ncc12)Nc1nc(-c2ccc(F)c(F)c2)cs1 | 6.98 µM (inactive) |
| COC(=O)C[C@]1(C(=O)OC)CN(C#N)N(c2ccc(Cl)cc2)C12c1ccccc1-c1ccccc12 | 2.16 µM |
| CCN1/C(=C/C(C)=C/c2sc3ccccc3[n+]2CC)Sc2ccccc21 | < 0.16 µM |
| COc1ccc(Cn2c(SCc3cc(C)ccc3C)nc3cc(OC)c(OC)cc3c2=N)cc1 | 3.55 µM (inactive) |
| COc1cc(/C=N/NC(=O)Nc2ccccc2)ccc1OCCOc1ccccc1C | 9.34 µM (inactive) |
| FC(F)(F)c1cccc(NC(=S)N2CCN(c3cccc(C(F)(F)F)c3)CC2)c1 | 9.67 µM (inactive) |

| SMILES | IC50 |
| --- | --- |
| C=CCOC(=O)C1=C(C)NC(C)=C(C(=O)OCC=C)C1/C=C/c1ccccc1 | 5.02 µM (inactive) |
| CC(C)Cn1c(=O)[nH]c(=O)c2c(C(F)(F)F)cc(-c3ccccc3)nc21 | > 10 µM (inactive) |
| CCCC(=O)N1CCN(c2ccc(NC(=O)c3cc4ccccc4o3)cc2Cl)CC1 | 5.4 µM (inactive) |
| Oc1ccc(Oc2ccc3c(C(F)(F)F)cc(C(F)(F)F)nc3n2)cc1 | 9.36 µM (inactive) |
| CC(=O)OCC1O[C@@H](O[C@@H]2C[C@H]3C(C)(C)[C@H](OC(C)=O)CC[C@]3(C)[C@H]3CC[C@]45C[C@]4(CC[C@H]5[C@@H](C)C[C@@H](O)[C@H](O)C(C)(C)O)[C@@]32C)[C@H](O)[C@@H](O)[C@@H]1O (some centres not stated) | 5.96 µM (inactive) |
| CC(C)(C)c1ccc(C(=O)NC(=S)NNC(=O)c2cccs2)cc1 | 6.3 µM (inactive) |
| CN1/C(=C\C=C\C2=[N+](C)c3ccc4ccccc4c3C2(C)C)C(C)(C)c2ccccc21 | 0.41 µM (inactive) |
| Cc1ccc(N=Cc2cc3c(cc2O)OC(N)=C(C#N)C3c2ccccc2)cc1 (configuration not stated) | > 10 µM (inactive) |
| COc1ccc(-c2[nH]ncc2/C=C(/C#N)C(=O)NC2CCCCCC2)cc1 | 9.23 µM (inactive) |
| Cc1nn(CCC#N)c2nc(-c3ccccc3)cc(C(F)(F)F)c12 | 4 µM (inactive) |
| C=CCc1cccc(/C=N/NC(=O)CCCNc2ccc(C)cc2)c1O | 9.23 µM (inactive) |
| CC1CCCC(NCC(O)COC(c2ccc(F)cc2)c2ccc(F)cc2)C1C (configuration not stated) | 9.43 µM (inactive) |
| O=C(N/N=C/c1cccs1)c1cccc(NC(=O)c2ccc(Cl)cc2)c1 | 4.15 µM |
| CS(=O)(=O)c1nc(-c2cccs2)cc(C(F)(F)F)n1 | < 0.16 µM |
| CCOC(=O)c1c2ccc(OCC(=O)N/N=C/c3ccc(C)cc3)cc2n2ccccc12 | 9.52 µM (inactive) |
| CCCCCCCCCS(=O)(=O)N/N=C/c1cccc([N+](=O)[O-])c1 | 3.9 µM (inactive) |
| O=C(NCCNC(=O)c1cc(OCC(F)(F)F)ccc1OCC(F)(F)F)Nc1cccc(C(F)(F)F)c1 | 2.57 µM |
| CC(C)CCN(C(=O)Cc1ccc(Cl)c(Cl)c1)c1c(N)n(Cc2ccccc2)c(=O)[nH]c1=O | 5.74 µM (inactive) |
| COc1ccccc1-c1cc(C(F)(F)F)nc(S(=O)(=O)CCCC(=O)Nc2cccnc2Cl)n1 | > 10 µM (inactive) |
| CC(C)c1ccccc1NC(=O)Cn1c(/C=C/c2ccccc2)nc2ccccc21 | 5.88 µM (inactive) |
| CCn1c(C)nc2cc(-c3nnc(-c4c(-c5ccccc5)noc4C)o3)ccc21 | 8.88 µM (inactive) |
| O=C(Nc1cccc(F)c1)N(Cc1ccc(Cl)cc1)CC(O)C(F)(F)F (configuration not stated) | 3.58 µM |
| CC1=C(CO)C(=O)OC([C@@H](C)C2CC[C@H]3C4C[C@H]5O[C@]56[C@@H](O)C=CC(=O)[C@]6(C)C4CC[C@]23C)C1 (some centres not stated) | > 10 µM (inactive) |

| SMILES | IC50 |
| --- | --- |
| O=C(NC(c1ccccc1)c1cc(Cl)c2cccnc2c1O)c1cccnc1 (configuration not stated) | 3.36 µM |
| CCCCc1c(C)nn(-c2nnc3c4ccccc4n(CC)c3n2)c1C | 9.73 µM (inactive) |
| COc1ccc(-c2nn(-c3ccccc3)cc2/C=N/NC(=O)c2ccc(Br)o2)cc1 | 9.29 µM (inactive) |
| Nc1c(C(=O)Nc2nc3ccccc3s2)sc2nc(-c3cccs3)ccc12 | 7.44 µM (inactive) |
| Cc1cccc(C)c1NC(=O)COc1ccccc1C(=O)Nc1ccc(Br)cn1 | > 10 µM (inactive) |
| CCN(CCO)c1ncnc2c1sc1nc(C(C)C)c3c(c12)CC(C)(C)OC3 | 9.63 µM (inactive) |
| CCOc1ccc(C2=C/C(=C/c3cccnc3)C(=O)O2)cc1 | 9.39 µM (inactive) |
| CN1/C(=C/C(=O)c2nc(S(C)(=O)=O)ncc2Cl)C(C)(C)c2ccccc21 | < 0.16 µM |
| Cc1ccc(C2CN(C)C3(C(=O)Nc4ccccc43)C23COc2ccccc2C3=O)cc1 (configuration not stated) | > 10 µM (inactive) |
| CC1(c2ccccc2)CC(C)(C)N2C(=O)C3(C(C#N)=C(N)Oc4cc(O)ccc43)c3cccc1c32 (configuration not stated) | 5.48 µM (inactive) |
| C/C=C/Cn1c(SCCCc2ccccc2)nc2c1c(=O)[nH]c(=O)n2C | > 10 µM (inactive) |
| COC(=O)[C@@H]1[C@@H](C(=O)OC)C2(c3ccccc3-c3ccccc32)N(c2ccc(Cl)cc2)N1C#N | 4.53 µM |
| CC1C/C(=C/c2ccccn2)C(=O)/C(=C/c2ccccn2)C1 (configuration not stated) | 2.49 µM |
| Cc1cccc(NC(=O)CSc2nc(C)c(CC(=O)c3ccc(Br)cc3)c(C)c2C#N)c1C | 5.95 µM (inactive) |
| CCc1ccc(-c2cc(C(=O)N3N=C(C(F)F)CC3(O)C(F)F)c3ccccc3n2)cc1 (configuration not stated) | 5.26 µM (inactive) |
| Cc1ccc2[nH]c(O)c(N=NC(=O)CCc3ccccc3)c2c1Br | 4.27 µM |
| CCN1CCN(Cc2ccc(NC(=O)c3ccc(C)c(NC(=O)c4c[nH]c5cc(C(F)(F)F)ccc5c4=O)c3)cc2C(F)(F)F)CC1 | 4.74 µM |
| COc1cc(/C=C(\C#N)c2nc3ccccc3[nH]2)cc(Br)c1OCc1ccc(F)cc1 | 6.3 µM (inactive) |
| CCOC(=O)C1=C(c2ccccc2)O/C(=C(/C#N)C(F)(F)F)S1 | 6.28 µM (inactive) |
| CCOC(=O)CN1C(c2ccc(O)cc2)Nc2ccc(Br)cc2C1c1ccccc1 (configuration not stated) | 9.53 µM (inactive) |
| O=C(OCn1ncc(Cl)c(Cl)c1=O)c1ccc(C(F)(F)F)cc1 | 9.59 µM (inactive) |
| O=C(Cc1ccccc1)NC(=S)Nc1cccc(C(F)(F)F)c1 | 3.61 µM (inactive) |
| COc1cccc(N2CCN(c3ncnc4c3[nH]c3ccccc34)CC2C)c1 (configuration not stated) | 4.13 µM |

| SMILES | IC50 |
| --- | --- |
| CCCCCCN=C(CC)c1c(O)n(CCCC)c(=O)[nH]c1=O | 7.59 µM (inactive) |
| O=c1[nH]c2ccccc2n1C1CCN(CCCC(c2ccc(F)cc2)c2ccc(F)cc2)CC1 | 6.34 µM (inactive) |
| CCCc1cc(=O)[nH]c(Nc2ccc(N3CCCCC3)cc2)n1 | 7.76 µM (inactive) |
| Cc1ccc(NP(=O)(Oc2ccccc2F)Oc2ccccc2F)cc1 | 5.26 µM (inactive) |
| O=C(OCn1ncc(Cl)c(Cl)c1=O)c1ccc(F)cc1 | 3.35 µM |
| O=c1[nH]c(=O)n(Cc2ccco2)c2c1C(C(F)(F)F)(C(F)(F)F)N=C(c1ccc(F)cc1)N2 | 6.5 µM (inactive) |
| C=CS(=O)(=O)c1ccc(Oc2ccc(S(=O)(=O)C=C)cc2)cc1 | 1.7 µM |
| O=C(Nc1ccc(F)cc1)Nc1ccc(N2CCCC2)c(S(=O)(=O)Nc2ccccc2Cl)c1 | 8.31 µM (inactive) |
| Cc1c(CN2CCC(CO)(CCOc3ccccc3)CC2)[nH]c2c(Cl)cccc12 | 9.13 µM (inactive) |
| COc1ccc(CCNC(=O)c2nnn(-c3ccc4c(c3)OCCO4)c2N)cc1OC | 0.69 µM |
| Cc1cc2c(cc1C)CSC(c1ccccc1O)SC2 | > 10 µM (inactive) |
| CN(C(=O)CCl)C1CCCc2ccccc21 (configuration not stated) | > 10 µM (inactive) |
| COc1ccc(C(C(=O)NC2CCCCC2)N(C(=O)CCl)c2cccc(Cl)c2)cc1 (configuration not stated) | 9.57 µM (inactive) |
| Cc1ccc(/C=N/NC(=O)CSCc2ccc(Cl)cc2)cc1 | 9.83 µM (inactive) |
| O=C1CC(c2cccc(Cl)c2)CC(O)=C1C=Nc1cccc(Cl)c1 (configuration not stated) | 9.72 µM (inactive) |
| O=C1c2ccccc2C(=O)C1c1nccc2ccccc12 | 5.41 µM (inactive) |
| NC(=O)c1ccc(C(F)(F)F)n(Cc2ccc(Cl)cc2)c1=O | 9.05 µM (inactive) |
| CCOc1cc(NC(=S)NCC(C)C)c(OCC)cc1NC(=O)c1cccs1 | > 10 µM (inactive) |
| CCN1/C(=C\C=C\C2=[N+](CC)c3ccccc3C2(C)C)C(C)(C)c2ccccc21 | 0.32 µM (inactive) |
| O=C(On1c(-c2ccccc2)nc2ccccc2c1=O)c1ccco1 | > 10 µM (inactive) |
| O=C(Nc1ccc(C(O)(C(F)(F)F)C(F)(F)F)cc1)c1ccc(Cl)c([N+](=O)[O-])c1 | 4.58 µM (inactive) |
| CCC(C)(C)NC(=O)C(c1cccn1C)N(C(=O)Cn1nnc2ccccc21)c1ccc(F)cc1 (configuration not stated) | > 10 µM (inactive) |
| CC(=O)C(C(C)=O)c1c(Cl)c(O)c(O)c2c(C(=O)c3ccccc3)coc12 | 5.67 µM (inactive) |
